Measured values from the NIST ThermoML archive (doi:10.1021/je0500633).
Numbers after ± are expanded uncertainties.

What was measured:
[1] = xn = mol fraction of the nth substance listed; details: 101.33 kPa, Liquid; for viscosity: Falling or rolling sphere viscometry
[2] = 101.33 kPa, Liquid; for viscosity: Falling or rolling sphere viscometry

SMILES	viscosity ([1]; 293.15 K, x2 = 0) [mPa·s]	mass density ([1]; 293.15 K, x2 = 0) [kg/m3]	viscosity ([1]; 303.15 K, x2 = 0) [mPa·s]	mass density ([1]; 303.15 K, x2 = 0) [kg/m3]	viscosity ([1]; 313.15 K, x2 = 0) [mPa·s]	mass density ([1]; 313.15 K, x2 = 0) [kg/m3]	viscosity ([1]; 293.15 K, x1 = 1) [mPa·s]	mass density ([1]; 293.15 K, x1 = 1) [kg/m3]	viscosity ([1]; 303.15 K, x1 = 1) [mPa·s]	mass density ([1]; 303.15 K, x1 = 1) [kg/m3]	viscosity ([1]; 313.15 K, x1 = 1) [mPa·s]	mass density ([1]; 313.15 K, x1 = 1) [kg/m3]	further results
CCO [ethanol] + CCCCCC(=O)OCC	1.16 ± 0.011	788.24 ± 0.62	0.968 ± 0.009	780.73 ± 0.63	0.81 ± 0.008	771.98 ± 0.64	–	–	–	–	–	–	–
CCCO [propan-1-ol]	–	–	–	–	–	–	–	–	–	–	–	–	mass density ([2]; 293.15 K): 803.64 ± 0.61 kg/m3; viscosity ([2]; 293.15 K): 2.188 ± 0.021 mPa·s; mass density ([2]; 303.15 K): 795.48 ± 0.62 kg/m3; viscosity ([2]; 303.15 K): 1.713 ± 0.016 mPa·s; mass density ([2]; 313.15 K): 787.02 ± 0.63 kg/m3; viscosity ([2]; 313.15 K): 1.378 ± 0.013 mPa·s
CCCCCC(=O)OCC [ethyl hexanoate] + CCO	–	–	–	–	–	–	0.816 ± 0.008	879.01 ± 0.58	0.704 ± 0.007	869.31 ± 0.57	0.614 ± 0.006	863.28 ± 0.56	–
CO [methanol] + CCCCCC(=O)OCC	0.577 ± 0.005	791.08 ± 0.63	0.512 ± 0.005	781.95 ± 0.64	0.447 ± 0.004	772.01 ± 0.65	–	–	–	–	–	–	–
CCOC(=O)C(C)CC (configuration not stated) [ethyl 2-methylbutanoate] + CO	–	–	–	–	–	–	0.831 ± 0.008	869.73 ± 0.57	0.723 ± 0.007	861.48 ± 0.58	0.635 ± 0.006	853.41 ± 0.58	–
CCOC(=O)C(C)CC (configuration not stated) [ethyl 2-methylbutanoate] + CCCO	–	–	–	–	–	–	0.831 ± 0.008	869.73 ± 0.57	0.723 ± 0.007	861.48 ± 0.58	0.635 ± 0.006	853.41 ± 0.58	–
CO [methanol] + CCOC(=O)C(C)CC	0.577 ± 0.005	791.08 ± 0.63	0.512 ± 0.005	781.95 ± 0.64	0.447 ± 0.004	772.01 ± 0.65	–	–	–	–	–	–	–
CCOC(=O)C(C)CC (configuration not stated) [ethyl 2-methylbutanoate] + CCO	–	–	–	–	–	–	0.831 ± 0.008	869.73 ± 0.57	0.723 ± 0.007	861.48 ± 0.58	0.635 ± 0.006	853.41 ± 0.58	–
CCCO [propan-1-ol] + CCOC(=O)C(C)CC	2.188 ± 0.021	803.64 ± 0.61	1.713 ± 0.016	795.48 ± 0.62	1.378 ± 0.013	787.02 ± 0.63	–	–	–	–	–	–	–
CCO [ethanol]	–	–	–	–	–	–	–	–	–	–	–	–	mass density ([2]; 293.15 K): 788.24 ± 0.62 kg/m3; viscosity ([2]; 293.15 K): 1.16 ± 0.011 mPa·s; mass density ([2]; 303.15 K): 780.73 ± 0.63 kg/m3; viscosity ([2]; 303.15 K): 0.968 ± 0.009 mPa·s; mass density ([2]; 313.15 K): 771.98 ± 0.64 kg/m3; viscosity ([2]; 313.15 K): 0.81 ± 0.008 mPa·s
CO [methanol]	–	–	–	–	–	–	–	–	–	–	–	–	mass density ([2]; 293.15 K): 791.08 ± 0.63 kg/m3; viscosity ([2]; 293.15 K): 0.577 ± 0.005 mPa·s; mass density ([2]; 303.15 K): 781.95 ± 0.64 kg/m3; viscosity ([2]; 303.15 K): 0.512 ± 0.005 mPa·s; mass density ([2]; 313.15 K): 772.01 ± 0.65 kg/m3; viscosity ([2]; 313.15 K): 0.447 ± 0.004 mPa·s
CCCCCC(=O)OCC [ethyl hexanoate] + CO	–	–	–	–	–	–	0.816 ± 0.008	879.01 ± 0.58	0.704 ± 0.007	869.31 ± 0.57	0.614 ± 0.006	863.28 ± 0.56	–
CCO [ethanol] + CCOC(=O)C(C)CC	1.16 ± 0.011	788.24 ± 0.62	0.968 ± 0.009	780.73 ± 0.63	0.81 ± 0.008	771.98 ± 0.64	–	–	–	–	–	–	–
CCCO [propan-1-ol] + CCCCCC(=O)OCC	2.188 ± 0.021	803.64 ± 0.61	1.713 ± 0.016	795.48 ± 0.62	1.378 ± 0.013	787.02 ± 0.63	–	–	–	–	–	–	–
CCCCCC(=O)OCC [ethyl hexanoate] + CCCO	–	–	–	–	–	–	0.816 ± 0.008	879.01 ± 0.58	0.704 ± 0.007	869.31 ± 0.57	0.614 ± 0.006	863.28 ± 0.56	–
CCOC(=O)C(C)CC (configuration not stated) [ethyl 2-methylbutanoate]	–	–	–	–	–	–	–	–	–	–	–	–	mass density ([2]; 293.15 K): 869.73 ± 0.57 kg/m3; viscosity ([2]; 293.15 K): 0.831 ± 0.008 mPa·s; mass density ([2]; 303.15 K): 861.48 ± 0.58 kg/m3; viscosity ([2]; 303.15 K): 0.723 ± 0.007 mPa·s; mass density ([2]; 313.15 K): 853.41 ± 0.58 kg/m3; viscosity ([2]; 313.15 K): 0.635 ± 0.006 mPa·s
CCCCCC(=O)OCC [ethyl hexanoate]	–	–	–	–	–	–	–	–	–	–	–	–	mass density ([2]; 293.15 K): 879.01 ± 4 kg/m3; viscosity ([2]; 293.15 K): 0.816 ± 0.008 mPa·s; mass density ([2]; 303.15 K): 869.31 ± 4 kg/m3; viscosity ([2]; 303.15 K): 0.704 ± 0.007 mPa·s; mass density ([2]; 313.15 K): 863.28 ± 4 kg/m3; viscosity ([2]; 313.15 K): 0.614 ± 0.006 mPa·s
